Test results from ChEMBL document CHEMBL4507274 (2021).

Tests used:
[1] = target: 5-hydroxytryptamine receptor 7 (Homo sapiens) (UniProt P34969); conditions: Compound concentration 10.0 uM
[2] = target: Mitogen-activated protein kinase 11 (Homo sapiens) (UniProt Q15759); test: SAPK2b (h) Upstate kinase activity assay; conditions: Compound concentration 10.0 uM
[3] = target: Tyrosine-protein kinase ABL1 (Homo sapiens) (UniProt P00519); conditions: Compound concentration 100.0 nM
[4] = target: T1, Tyrosine-protein kinase ZAP-70 (Homo sapiens) (UniProt P43403); conditions: Compound concentration 100.0 nM
T1 sequence (whole entry): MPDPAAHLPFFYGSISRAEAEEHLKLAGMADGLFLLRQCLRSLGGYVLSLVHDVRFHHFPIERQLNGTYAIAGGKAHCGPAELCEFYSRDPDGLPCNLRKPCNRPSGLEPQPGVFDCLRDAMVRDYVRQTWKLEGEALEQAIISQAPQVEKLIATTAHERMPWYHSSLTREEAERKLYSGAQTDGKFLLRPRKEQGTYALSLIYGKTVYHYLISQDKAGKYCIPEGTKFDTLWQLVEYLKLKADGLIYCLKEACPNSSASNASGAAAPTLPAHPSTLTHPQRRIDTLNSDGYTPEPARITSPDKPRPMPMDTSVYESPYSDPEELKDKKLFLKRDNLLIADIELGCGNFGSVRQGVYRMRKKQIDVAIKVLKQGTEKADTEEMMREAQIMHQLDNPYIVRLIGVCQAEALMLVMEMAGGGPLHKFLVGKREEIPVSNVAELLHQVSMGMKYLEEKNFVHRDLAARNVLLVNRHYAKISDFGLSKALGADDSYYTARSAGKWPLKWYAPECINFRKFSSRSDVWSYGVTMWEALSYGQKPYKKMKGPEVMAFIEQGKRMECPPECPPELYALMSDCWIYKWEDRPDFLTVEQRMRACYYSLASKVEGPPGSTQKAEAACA

[5] = target: Tyrosine-protein kinase Srms (Homo sapiens) (UniProt Q9H3Y6); conditions: Compound concentration 100.0 nM
[6] = target: Transient receptor potential cation channel subfamily M member 6 (Homo sapiens) (UniProt Q9BX84); conditions: Compound concentration 100.0 nM
Sequence of Transient receptor potential cation channel subfamily M member 6 (Homo sapiens) (Q9BX84 whole entry): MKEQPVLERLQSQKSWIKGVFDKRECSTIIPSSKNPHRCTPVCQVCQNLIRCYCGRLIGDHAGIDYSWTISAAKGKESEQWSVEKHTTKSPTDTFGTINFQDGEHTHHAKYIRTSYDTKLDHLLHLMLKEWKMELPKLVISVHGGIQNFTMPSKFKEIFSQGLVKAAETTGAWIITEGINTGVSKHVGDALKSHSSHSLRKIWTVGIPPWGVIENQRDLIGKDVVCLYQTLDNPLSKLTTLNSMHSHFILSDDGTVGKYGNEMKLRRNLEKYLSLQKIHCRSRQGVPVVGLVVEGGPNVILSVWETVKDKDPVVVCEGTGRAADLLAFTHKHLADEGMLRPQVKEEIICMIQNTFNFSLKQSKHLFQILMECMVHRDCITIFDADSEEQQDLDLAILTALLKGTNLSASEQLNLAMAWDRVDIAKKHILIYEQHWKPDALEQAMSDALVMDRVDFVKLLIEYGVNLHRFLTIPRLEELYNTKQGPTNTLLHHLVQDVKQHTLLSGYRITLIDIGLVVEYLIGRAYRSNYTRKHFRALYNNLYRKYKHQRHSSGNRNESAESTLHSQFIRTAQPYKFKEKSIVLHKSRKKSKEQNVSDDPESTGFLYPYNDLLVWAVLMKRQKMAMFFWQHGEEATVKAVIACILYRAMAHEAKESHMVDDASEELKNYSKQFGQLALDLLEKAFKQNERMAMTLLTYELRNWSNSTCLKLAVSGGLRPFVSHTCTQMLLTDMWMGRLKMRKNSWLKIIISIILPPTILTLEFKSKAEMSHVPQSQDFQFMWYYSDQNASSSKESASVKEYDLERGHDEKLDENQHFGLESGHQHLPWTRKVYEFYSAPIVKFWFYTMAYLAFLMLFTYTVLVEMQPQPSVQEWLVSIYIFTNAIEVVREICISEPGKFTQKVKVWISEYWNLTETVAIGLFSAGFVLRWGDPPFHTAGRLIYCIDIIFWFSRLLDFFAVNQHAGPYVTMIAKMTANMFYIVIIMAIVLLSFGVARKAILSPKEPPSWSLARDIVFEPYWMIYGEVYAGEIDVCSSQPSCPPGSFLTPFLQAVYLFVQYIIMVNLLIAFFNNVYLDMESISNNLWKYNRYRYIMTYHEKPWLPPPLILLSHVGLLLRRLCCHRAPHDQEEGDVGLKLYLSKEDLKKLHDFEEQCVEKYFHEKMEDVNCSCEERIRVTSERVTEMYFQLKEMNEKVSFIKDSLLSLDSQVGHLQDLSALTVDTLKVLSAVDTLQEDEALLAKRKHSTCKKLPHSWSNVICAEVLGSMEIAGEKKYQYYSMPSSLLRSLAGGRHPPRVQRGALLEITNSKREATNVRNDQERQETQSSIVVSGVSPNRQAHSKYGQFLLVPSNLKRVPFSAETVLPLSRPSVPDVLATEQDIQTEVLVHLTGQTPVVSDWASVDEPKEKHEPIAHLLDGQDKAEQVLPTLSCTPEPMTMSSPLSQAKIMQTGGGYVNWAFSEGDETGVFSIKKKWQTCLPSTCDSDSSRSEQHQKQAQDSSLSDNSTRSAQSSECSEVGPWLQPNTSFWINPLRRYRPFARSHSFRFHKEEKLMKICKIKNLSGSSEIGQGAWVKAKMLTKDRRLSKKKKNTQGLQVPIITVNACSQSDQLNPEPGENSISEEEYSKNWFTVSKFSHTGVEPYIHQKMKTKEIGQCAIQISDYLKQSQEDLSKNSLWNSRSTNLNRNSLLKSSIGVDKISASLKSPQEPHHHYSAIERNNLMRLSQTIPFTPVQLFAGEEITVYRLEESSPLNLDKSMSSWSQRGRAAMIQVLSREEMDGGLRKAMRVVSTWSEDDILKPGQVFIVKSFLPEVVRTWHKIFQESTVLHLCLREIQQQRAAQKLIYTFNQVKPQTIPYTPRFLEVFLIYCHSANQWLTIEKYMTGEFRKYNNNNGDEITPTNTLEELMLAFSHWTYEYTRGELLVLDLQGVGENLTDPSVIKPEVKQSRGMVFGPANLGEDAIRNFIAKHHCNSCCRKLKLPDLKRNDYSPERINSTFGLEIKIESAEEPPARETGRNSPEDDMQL

[7] = target: Mitogen-activated protein kinase kinase kinase kinase 2 (Homo sapiens) (UniProt Q12851); conditions: Compound concentration 100.0 nM
Sequence of Mitogen-activated protein kinase kinase kinase kinase 2 (Homo sapiens) (Q12851 whole entry): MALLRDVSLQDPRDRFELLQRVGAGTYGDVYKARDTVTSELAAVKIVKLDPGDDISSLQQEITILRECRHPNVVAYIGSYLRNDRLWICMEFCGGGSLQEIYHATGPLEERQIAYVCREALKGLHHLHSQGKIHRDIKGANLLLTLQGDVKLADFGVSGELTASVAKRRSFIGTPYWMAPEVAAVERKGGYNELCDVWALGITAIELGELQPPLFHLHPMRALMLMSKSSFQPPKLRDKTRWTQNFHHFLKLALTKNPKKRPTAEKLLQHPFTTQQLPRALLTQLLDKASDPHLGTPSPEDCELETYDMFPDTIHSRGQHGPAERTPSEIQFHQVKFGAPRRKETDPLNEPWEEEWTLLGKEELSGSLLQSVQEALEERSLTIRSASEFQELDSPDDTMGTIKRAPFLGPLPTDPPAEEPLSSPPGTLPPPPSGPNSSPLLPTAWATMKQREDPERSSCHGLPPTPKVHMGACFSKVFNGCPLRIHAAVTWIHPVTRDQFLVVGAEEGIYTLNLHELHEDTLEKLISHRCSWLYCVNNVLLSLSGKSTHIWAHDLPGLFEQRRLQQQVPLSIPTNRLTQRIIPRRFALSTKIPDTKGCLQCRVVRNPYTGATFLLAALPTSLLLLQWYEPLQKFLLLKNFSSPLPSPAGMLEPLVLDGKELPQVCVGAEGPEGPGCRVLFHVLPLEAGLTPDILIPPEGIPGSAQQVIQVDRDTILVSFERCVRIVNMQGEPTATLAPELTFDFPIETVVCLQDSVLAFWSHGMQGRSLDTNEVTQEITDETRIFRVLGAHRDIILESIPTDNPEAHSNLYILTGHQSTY

[8] = target: Protein kinase C zeta type (Homo sapiens) (UniProt Q05513); test: PKCzeta (h) Upstate kinase activity assay; conditions: Compound concentration 10.0 uM
[9] = target: 5-hydroxytryptamine receptor 5A (Homo sapiens) (UniProt P47898); conditions: Compound concentration 10.0 uM
[10] = system: Serine/threonine-protein kinase B-raf (Homo sapiens), P15056 [V600E]; conditions: Compound concentration 100.0 nM
[11] = target: Sodium-dependent serotonin transporter (Homo sapiens) (UniProt P31645); conditions: Compound concentration 10.0 uM
Sequence of Sodium-dependent serotonin transporter (Homo sapiens) (P31645 whole entry, looked up): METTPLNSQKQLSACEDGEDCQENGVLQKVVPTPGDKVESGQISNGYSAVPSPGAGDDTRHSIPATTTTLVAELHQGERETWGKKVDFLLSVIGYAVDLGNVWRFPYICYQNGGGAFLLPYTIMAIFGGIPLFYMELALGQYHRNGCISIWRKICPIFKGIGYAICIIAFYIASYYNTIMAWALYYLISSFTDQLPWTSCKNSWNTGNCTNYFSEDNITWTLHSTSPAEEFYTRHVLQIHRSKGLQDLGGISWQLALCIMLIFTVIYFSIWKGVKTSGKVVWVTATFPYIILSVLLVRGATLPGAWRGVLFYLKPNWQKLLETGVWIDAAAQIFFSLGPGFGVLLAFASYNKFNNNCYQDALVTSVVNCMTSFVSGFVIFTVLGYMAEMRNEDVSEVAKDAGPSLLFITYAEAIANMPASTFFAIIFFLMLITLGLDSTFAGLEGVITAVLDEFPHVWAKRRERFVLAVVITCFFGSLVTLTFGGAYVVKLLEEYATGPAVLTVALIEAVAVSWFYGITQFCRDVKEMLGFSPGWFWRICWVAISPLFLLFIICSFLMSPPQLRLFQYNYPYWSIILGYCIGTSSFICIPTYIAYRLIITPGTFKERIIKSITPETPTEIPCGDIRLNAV

[12] = target: RAC-beta serine/threonine-protein kinase (Homo sapiens) (UniProt P31751); conditions: Compound concentration 100.0 nM
[13] = target: Bone morphogenetic protein receptor type-1A (Homo sapiens) (UniProt P36894); conditions: Compound concentration 100.0 nM
[14] = target: Microtubule-associated serine/threonine-protein kinase 1 (Homo sapiens) (UniProt Q9Y2H9); conditions: Compound concentration 100.0 nM
[15] = Lung NCI-1-1460 cell line MDS Pharma Services Proliferation Assay; format: functional, cell-based, Homo sapiens
[16] = target: Cyclin-dependent kinase-like 2 (Homo sapiens) (UniProt Q92772); conditions: Compound concentration 100.0 nM
[17] = target: Activin receptor type-1 (Homo sapiens) (UniProt Q04771); conditions: Compound concentration 100.0 nM
Sequence of Activin receptor type-1 (Homo sapiens) (Q04771 whole entry): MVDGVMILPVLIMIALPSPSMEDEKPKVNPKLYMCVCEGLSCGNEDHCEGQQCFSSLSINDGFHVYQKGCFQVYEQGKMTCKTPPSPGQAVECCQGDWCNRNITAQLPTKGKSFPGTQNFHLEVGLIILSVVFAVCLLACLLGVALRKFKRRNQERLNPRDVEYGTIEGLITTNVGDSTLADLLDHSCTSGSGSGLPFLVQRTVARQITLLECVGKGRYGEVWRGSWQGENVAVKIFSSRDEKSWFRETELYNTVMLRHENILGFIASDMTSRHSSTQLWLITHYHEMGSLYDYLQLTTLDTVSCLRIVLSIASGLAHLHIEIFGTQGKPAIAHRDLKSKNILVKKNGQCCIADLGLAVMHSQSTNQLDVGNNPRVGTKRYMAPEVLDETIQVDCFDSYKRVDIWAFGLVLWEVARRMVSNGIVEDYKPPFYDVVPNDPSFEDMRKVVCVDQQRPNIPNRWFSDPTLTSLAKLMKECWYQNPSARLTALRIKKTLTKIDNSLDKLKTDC

[18] = target: Serine/threonine-protein kinase 17A (Homo sapiens) (UniProt Q9UEE5); conditions: Compound concentration 100.0 nM
[19] = target: Serine/threonine-protein kinase 32C (Homo sapiens) (UniProt Q86UX6); conditions: Compound concentration 100.0 nM
Sequence of Serine/threonine-protein kinase 32C (Homo sapiens) (Q86UX6 whole entry): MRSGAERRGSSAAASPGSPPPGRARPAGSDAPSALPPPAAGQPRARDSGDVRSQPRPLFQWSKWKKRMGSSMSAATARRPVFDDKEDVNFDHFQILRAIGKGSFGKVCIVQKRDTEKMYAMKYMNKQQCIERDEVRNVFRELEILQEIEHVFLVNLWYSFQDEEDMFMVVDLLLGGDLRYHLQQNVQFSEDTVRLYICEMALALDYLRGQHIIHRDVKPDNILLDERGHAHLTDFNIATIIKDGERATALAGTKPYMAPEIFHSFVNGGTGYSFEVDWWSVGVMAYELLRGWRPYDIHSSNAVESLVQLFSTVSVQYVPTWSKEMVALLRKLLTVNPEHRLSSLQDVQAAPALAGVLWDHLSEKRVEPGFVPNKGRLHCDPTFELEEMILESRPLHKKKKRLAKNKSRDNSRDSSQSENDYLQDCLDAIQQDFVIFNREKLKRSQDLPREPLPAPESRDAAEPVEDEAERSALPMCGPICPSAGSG

[20] = system: Hep 3B2; test: Liver Hep 3B cell line MDS Pharma Services Proliferation Assay; format: functional, cell-based, Homo sapiens
[21] = target: cAMP-dependent protein kinase catalytic subunit beta (Homo sapiens) (UniProt P22694); conditions: Compound concentration 100.0 nM
[22] = target: Cyclin-dependent kinase 2 (Homo sapiens) (UniProt P24941); conditions: Compound concentration 100.0 nM
[23] = target: Ankyrin repeat and protein kinase domain-containing protein 1 (Homo sapiens) (UniProt Q8NFD2); conditions: Compound concentration 100.0 nM
[24] = target: Serine/threonine-protein kinase PknB (Mycobacterium tuberculosis) (UniProt P9WI81); conditions: Compound concentration 100.0 nM
[25] = target: Myosin light chain kinase family member 4 (Homo sapiens) (UniProt Q86YV6); conditions: Compound concentration 100.0 nM
[26] = target: Activin receptor type-2B (Homo sapiens) (UniProt Q13705); conditions: Compound concentration 100.0 nM
[27] = target: Insulin-like growth factor 1 receptor (Homo sapiens) (UniProt P08069); test: IGF-1R (h) Upstate kinase activity assay; conditions: Compound concentration 10.0 uM
[28] = target: Ribosomal protein S6 kinase beta-1 (Homo sapiens) (UniProt P23443); conditions: Compound concentration 100.0 nM
Sequence of Ribosomal protein S6 kinase beta-1 (Homo sapiens) (P23443 whole entry, looked up): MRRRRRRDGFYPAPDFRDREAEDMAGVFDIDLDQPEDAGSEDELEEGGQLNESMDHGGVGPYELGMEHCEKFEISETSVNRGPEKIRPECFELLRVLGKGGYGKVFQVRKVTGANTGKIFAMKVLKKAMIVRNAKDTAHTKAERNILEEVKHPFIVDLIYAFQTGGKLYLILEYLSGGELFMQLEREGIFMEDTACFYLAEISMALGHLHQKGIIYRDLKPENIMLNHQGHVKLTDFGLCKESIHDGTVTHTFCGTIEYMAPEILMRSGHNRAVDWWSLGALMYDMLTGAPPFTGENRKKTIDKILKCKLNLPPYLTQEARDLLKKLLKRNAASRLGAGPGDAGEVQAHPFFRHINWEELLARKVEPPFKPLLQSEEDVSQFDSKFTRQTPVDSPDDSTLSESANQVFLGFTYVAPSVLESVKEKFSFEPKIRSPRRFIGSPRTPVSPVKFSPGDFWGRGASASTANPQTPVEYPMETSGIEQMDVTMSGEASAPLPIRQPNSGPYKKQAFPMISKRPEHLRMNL

[29] = system: Tyrosine-protein kinase ABL1 (Homo sapiens), P00519 [F317L]; conditions: Compound concentration 100.0 nM

## Cc1c[nH]c2nccc(Oc3c(F)cc(Nc4cc(Cl)nc(N)n4)cc3F)c12 [BAY-549]
[1]
  inhibition: 9.29%
[2]
  inhibition: 1%
[3]
  residual activity: 97%
[4]
  residual activity: 100%
[5]
  residual activity: 100%
[6]
  residual activity: 83%
[7]
  residual activity: 69%
[8]
  inhibition: -7%
[9]
  inhibition: -9.86%
[10]
  residual activity: 98%
[11]
  inhibition: 2.1%
[12]
  residual activity: 98%
[13]
  residual activity: 85%
[14]
  residual activity: 100%
[15]; Homo sapiens, Lung NCI-1-1460
  TGI: 11 µM
[15]; Homo sapiens, Lung NCI-1-1460, read-out: LC50 (the source's name)
  CC50: > 100 µM
[15]; ± SEM 1 % growth
  Mean % growth (n = 2) for 0.01 µM probe concentration: 98%
  Mean % growth (n = 2) for 10.0 µM probe concentration: 2%
[15]; ± SEM 2 % growth
  Mean % growth (n = 2) for 1.0 µM probe concentration: 50%
[15]; ± SEM 3 % growth
  Mean % growth (n = 2) for 0.1 µM probe concentration: 82%
[15]; ± SEM 12 % growth
  Mean % growth (n = 2) for 100.0 µM probe concentration: -45%
[16]
  residual activity: 93%
[17]
  residual activity: 94%
[18]
  residual activity: 100%
[19]
  residual activity: 93%
[20]
  Mean % growth (n = 2) for 10.0 µM probe concentration: 11%
[20]; Homo sapiens, Hep3B
  IC50: 1.3 µM
  TGI: 45 µM
[20]; Homo sapiens, Hep3B, read-out: LC50 (the source's name)
  CC50: > 100 µM
[20]; ± SEM 3 % growth
  Mean % growth (n = 2) for 0.1 µM probe concentration: 82%
[20]; ± SEM 5 % growth
  Mean % growth (n = 2) for 100.0 µM probe concentration: -4%
[20]; ± SEM 6 % growth
  Mean % growth (n = 2) for 1.0 µM probe concentration: 51%
[20]; ± SEM 8 % growth
  Mean % growth (n = 2) for 0.01 µM probe concentration: 90%
[21]
  residual activity: 36%
[22]
  residual activity: 99%
[23]
  residual activity: 85%
[24]
  residual activity: 98%
[25]
  residual activity: 100%
[26]
  residual activity: 100%
[27]
  inhibition: 41%
[28]
  residual activity: 85%
[29]
  residual activity: 84%

## Cn1cc(Cl)c2c(Oc3c(F)cc(Nc4cc(Cl)nc(N)n4)cc3F)ccnc21 [BAY-4900]
[1]
  inhibition: -1.63%
[3]
  residual activity: 97%
[4]
  residual activity: 100%
[5]
  residual activity: 100%
[6]
  residual activity: 77%
[7]
  residual activity: 81%
[9]
  inhibition: 0.35%
[10]
  residual activity: 100%
[11]
  inhibition: -5.34%
[12]
  residual activity: 100%
[13]
  residual activity: 95%
[14]
  residual activity: 100%
[16]
  residual activity: 100%
[17]
  residual activity: 85%
[18]
  residual activity: 94%
[19]
  residual activity: 100%
[21]
  residual activity: 92%
[22]
  residual activity: 100%
[23]
  residual activity: 83%
[24]
  residual activity: 100%
[25]
  residual activity: 91%
[26]
  residual activity: 79%
[28]
  residual activity: 84%
[29]
  residual activity: 94%
